Columns and labels:
Type in all cases: cell-based
[1] = target: T1, PfCRT^Ecu1110 (Plasmodium falciparum, UniProt Q9N623, A220S/I356L/K76T/N326D); assay: [3H]CQ uptake into Xenopus oocytes, cis-inhibition by unlabelled solute; details: for PfCRT-mediated [3H]CQ transport, cis-inhibition (% PfCRTEcu1110 control): PfCRTEcu1110 oocytes, background [3H]CQ accumulation subtracted, normalised to oocyte type control; for [3H]CQ transport (% PfCRTEcu1110 control), cis-inhibition, PfCRTEcu1110: PfCRT-mediated component (background subtracted), sheet title says normalised to PfCRTDd2 control, mean ± SEM, SEM
In short: (§1)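 Radioactivity accumulated per oocyte, read by liquid scintillation after 10% SDS lysis, served as the uptake measure. Incubations ran 1.5 h at 27.5 °C in ND96 at pH 5.5, matching digestive-vacuole acidity.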

[2] = target: T2, PfCRT^Dd2 (Plasmodium falciparum, UniProt Q9N623, A220S/I356T/K76T/M74I/N326S/N75E/Q271E/R371I); assay: as above; details: PfCRTDd2 oocytes, background [3H]CQ accumulation subtracted, normalised to oocyte type control
In short: as §1

[3] = target: T1, PfCRT^Ecu1110; assay: cell-based; details: for PfCRT-mediated [3H]CQ transport, trans-stimulation (% PfCRTEcu1110 control): PfCRTEcu1110 oocytes, normalised to oocyte type control; for [3H]CQ transport (% PfCRTDd2 control), trans-stimulation, PfCRTEcu1110: PfCRT-mediated component (background subtracted), sheet title says normalised to PfCRTDd2 control, mean ± SEM, SEM
In short: (§2)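 Transport measured in Xenopus oocytes expressing the transporters, 1.5 h at 27.5 °C in ND96 pH 5.5 unless noted. For trans-stimulation, VF-6 injected in 25 nL ND96 at pH 5.0–7.0 or Na^+-free (choline) buffer; intracellular levels based on ~400 nL oocyte volume. Ten oocytes per treatment, ≥4 experiments.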

[4] = target: T2, PfCRT^Dd2; assay: cell-based; details: for PfCRT-mediated [3H]CQ transport, trans-stimulation (% PfCRTDd2 control): PfCRTDd2 oocytes, normalised to oocyte type control; for [3H]CQ transport (% PfCRTDd2 control), trans-stimulation, PfCRTDd2: PfCRT-mediated component (background subtracted), mean ± SEM, SEM
In short: as §2

[5] = target: PfCRT^3D7 (Plasmodium falciparum, UniProt Q8IBZ9); assay: cell-based; details: for PfCRT-mediated [3H]CQ transport, trans-stimulation (% PfCRT3D7 control): PfCRT3D7 oocytes, normalised to oocyte type control
In short: as §2

[6] = [test solute]i = 5 mM (intracellular)
[7] = [test solute]i = 45 mM (intracellular; 30 mM for some solutes due to solubility)
[8] = [test solute]i = 5 mM (injected)
[9] = [test solute]i = 45 mM (30 mM for some solutes due to solubility)

T1 sequence (Q9N623 whole entry A220S/I356L/K76T/N326D): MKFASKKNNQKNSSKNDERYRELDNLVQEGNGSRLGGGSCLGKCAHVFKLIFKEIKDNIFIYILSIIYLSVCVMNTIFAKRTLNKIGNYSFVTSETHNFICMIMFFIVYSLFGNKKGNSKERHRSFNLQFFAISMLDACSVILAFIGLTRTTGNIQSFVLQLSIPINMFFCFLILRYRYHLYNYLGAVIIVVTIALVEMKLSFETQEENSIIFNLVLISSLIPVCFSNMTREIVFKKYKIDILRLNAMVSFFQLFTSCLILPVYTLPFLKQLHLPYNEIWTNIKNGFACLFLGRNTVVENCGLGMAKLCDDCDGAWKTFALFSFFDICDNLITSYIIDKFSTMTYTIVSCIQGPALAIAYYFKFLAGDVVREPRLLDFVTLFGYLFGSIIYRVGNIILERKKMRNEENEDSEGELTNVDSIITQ
PfCRT^3D7, sequence (Q8IBZ9 59-398): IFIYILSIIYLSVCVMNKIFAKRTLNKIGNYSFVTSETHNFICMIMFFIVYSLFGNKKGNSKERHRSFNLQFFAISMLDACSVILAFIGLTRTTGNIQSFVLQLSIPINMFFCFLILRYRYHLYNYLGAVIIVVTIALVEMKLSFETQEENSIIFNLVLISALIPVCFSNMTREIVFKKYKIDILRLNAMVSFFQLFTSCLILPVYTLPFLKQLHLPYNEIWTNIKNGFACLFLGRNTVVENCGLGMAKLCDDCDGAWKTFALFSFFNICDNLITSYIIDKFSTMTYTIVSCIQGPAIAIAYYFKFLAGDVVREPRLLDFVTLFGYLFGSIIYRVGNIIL
T2 sequence (Q9N623 whole entry A220S/I356T/K76T/M74I/N326S/N75E/Q271E/R371I): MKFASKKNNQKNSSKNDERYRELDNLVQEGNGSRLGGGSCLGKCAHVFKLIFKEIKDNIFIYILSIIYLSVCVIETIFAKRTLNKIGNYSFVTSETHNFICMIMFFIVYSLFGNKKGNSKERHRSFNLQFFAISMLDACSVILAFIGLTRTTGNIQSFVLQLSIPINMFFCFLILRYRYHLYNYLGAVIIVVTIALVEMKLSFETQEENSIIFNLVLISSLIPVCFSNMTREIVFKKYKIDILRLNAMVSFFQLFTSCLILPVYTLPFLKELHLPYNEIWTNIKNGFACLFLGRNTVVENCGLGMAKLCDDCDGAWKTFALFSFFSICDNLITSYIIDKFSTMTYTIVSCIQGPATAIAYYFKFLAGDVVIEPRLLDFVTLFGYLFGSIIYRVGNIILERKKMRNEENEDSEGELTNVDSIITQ

Row | Substance | PfCRT-mediated [3H]CQ transport, cis-inhibition (% PfCRTEcu1110 control) ([1]; [test solute] = 0.5 mM) | PfCRT-mediated [3H]CQ transport, cis-inhibition (% PfCRTEcu1110 control) ([1]; [test solute] = 1 mM) | PfCRT-mediated [3H]CQ transport, cis-inhibition (% PfCRTEcu1110 control) ([1]; [test solute] = 2 mM) | [3H]CQ transport (% PfCRTEcu1110 control), cis-inhibition, PfCRTEcu1110 ([1]; [test solute] = 0.5 mM) [% PfCRTEcu1110 control] | [3H]CQ transport (% PfCRTEcu1110 control), cis-inhibition, PfCRTEcu1110 ([1]; [test solute] = 1 mM) [% PfCRTEcu1110 control] | [3H]CQ transport (% PfCRTEcu1110 control), cis-inhibition, PfCRTEcu1110 ([1]; [test solute] = 2 mM) [% PfCRTEcu1110 control] | PfCRT-mediated [3H]CQ transport, cis-inhibition (% PfCRTDd2 control) ([2]; [test solute] = 0.5 mM) | PfCRT-mediated [3H]CQ transport, cis-inhibition (% PfCRTDd2 control) ([2]; [test solute] = 1 mM) | PfCRT-mediated [3H]CQ transport, cis-inhibition (% PfCRTDd2 control) ([2]; [test solute] = 2 mM) | PfCRT-mediated [3H]CQ transport, trans-stimulation (% PfCRTEcu1110 control) [3, 6] [% PfCRTEcu1110 control] | PfCRT-mediated [3H]CQ transport, trans-stimulation (% PfCRTEcu1110 control) [3, 7] [% PfCRTEcu1110 control] | [3H]CQ transport (% PfCRTDd2 control), trans-stimulation, PfCRTEcu1110 [3, 8] [% PfCRTEcu1110 control] | [3H]CQ transport (% PfCRTDd2 control), trans-stimulation, PfCRTEcu1110 [3, 9] [% PfCRTEcu1110 control] | PfCRT-mediated [3H]CQ transport, trans-stimulation (% PfCRTDd2 control) [4, 6] [% PfCRTDd2 control] | PfCRT-mediated [3H]CQ transport, trans-stimulation (% PfCRTDd2 control) [4, 7] [% PfCRTDd2 control] | [3H]CQ transport (% PfCRTDd2 control), trans-stimulation, PfCRTDd2 [4, 8] [% PfCRTDd2 control] | [3H]CQ transport (% PfCRTDd2 control), trans-stimulation, PfCRTDd2 [4, 9] [% PfCRTDd2 control] | PfCRT-mediated [3H]CQ transport, trans-stimulation (% PfCRT3D7 control) [5, 6] [% PfCRT3D7 control] | PfCRT-mediated [3H]CQ transport, trans-stimulation (% PfCRT3D7 control) [5, 7] [% PfCRT3D7 control] | [3H]CQ transport (% PfCRT3D7 control), trans-stimulation, PfCRT3D7 ([5]; SEM)
1 | VDPVNFK [VK-7] | 40 ± 2.5 | 27 ± 4.1 | 22 ± 2.4 | 13 ± 0.6 | 9.0 ± 0.02 | 7.0 ± 0.04 | 17 ± 0.3 | 9 ± 0.1 | 3.2 ± 0.1 | 132 ± 3.5 | 138 ± 4.1 | 40 ± 2.1 | 42 ± 2.4 | 100 ± 4.2 | 98 ± 2.2 | 100 ± 4.2 | 98 ± 2.2 | 128 ± 3.2 | 179 ± 5.3 | –
2 | VVYPWTQR [VR-8] | 42 ± 2.6 | 32 ± 1.9 | 21 ± 1.4 | – | – | – | 40 ± 3.2 | 22 ± 1.1 | 11 ± 0.8 | 97 ± 1.8 | 98 ± 3.7 | – | – | 96 ± 1.4 | 95 ± 1.5 | – | – | 96 ± 2.8 | 98 ± 2.9 | –
3 | DTSLKPIS [DS-8] | 57 ± 2.1 | 42 ± 3.1 | 28 ± 1.3 | – | – | – | 40 ± 2.2 | 28 ± 0.6 | 19 ± 0.3 | 127 ± 2.8 | 140 ± 4.1 | – | – | 95 ± 3.1 | 112 ± 1.2 | – | – | 135 ± 3.7 | 180 ± 3.4 | –
4 | HVDPENFRL [HL-9] | 41 ± 2.5 | 35 ± 2.6 | 28 ± 0.1 | – | – | – | 38 ± 1.0 | 31 ± 0.3 | 9 ± 0.8 | 98 ± 3.6 | 96 ± 2.1 | – | – | 97 ± 2.0 | 98 ± 3.3 | – | – | 98 ± 3.5 | 97 ± 3.1 | –
5 | DMPNALS [DS-7, host-derived peptide upstream of PL-4] | 51 ± 4.1 | 48 ± 1.4 | 29 ± 1.5 | 16 ± 0.2 | 15 ± 0.4 | 9.0 ± 0.05 | 49 ± 1.1 | 41 ± 1.0 | 27 ± 0.2 | 128 ± 3.1 | 135 ± 4.2 | 39 ± 1.6 | 41 ± 1.9 | 97 ± 3.6 | 112 ± 3.5 | 97 ± 3.6 | 112 ± 3.5 | 136 ± 4.1 | 188 ± 4.6 | –
6 | AEALERMF [AF-8] | 52 ± 2.9 | 41 ± 2.1 | 32 ± 1.1 | – | – | 10 ± 0.06 | 61 ± 1.3 | 52 ± 2.6 | 19 ± 0.1 | 96 ± 3.1 | 98 ± 4.1 | 29 ± 1.0 | 30 ± 1.9 | 97 ± 2.8 | 96 ± 4.3 | 97 ± 2.8 | 96 ± 4.3 | 97 ± 3.2 | 97 ± 3.5 | 0.1 ± 0.03
